This experiment has as its target T1, human androgen receptor (AR) (Homo sapiens, UniProt P10275).
T1 construct: expressed in transfected cells; host or cells: mouse myoblast C2C12 cells
T1 sequence (P10275 1-920): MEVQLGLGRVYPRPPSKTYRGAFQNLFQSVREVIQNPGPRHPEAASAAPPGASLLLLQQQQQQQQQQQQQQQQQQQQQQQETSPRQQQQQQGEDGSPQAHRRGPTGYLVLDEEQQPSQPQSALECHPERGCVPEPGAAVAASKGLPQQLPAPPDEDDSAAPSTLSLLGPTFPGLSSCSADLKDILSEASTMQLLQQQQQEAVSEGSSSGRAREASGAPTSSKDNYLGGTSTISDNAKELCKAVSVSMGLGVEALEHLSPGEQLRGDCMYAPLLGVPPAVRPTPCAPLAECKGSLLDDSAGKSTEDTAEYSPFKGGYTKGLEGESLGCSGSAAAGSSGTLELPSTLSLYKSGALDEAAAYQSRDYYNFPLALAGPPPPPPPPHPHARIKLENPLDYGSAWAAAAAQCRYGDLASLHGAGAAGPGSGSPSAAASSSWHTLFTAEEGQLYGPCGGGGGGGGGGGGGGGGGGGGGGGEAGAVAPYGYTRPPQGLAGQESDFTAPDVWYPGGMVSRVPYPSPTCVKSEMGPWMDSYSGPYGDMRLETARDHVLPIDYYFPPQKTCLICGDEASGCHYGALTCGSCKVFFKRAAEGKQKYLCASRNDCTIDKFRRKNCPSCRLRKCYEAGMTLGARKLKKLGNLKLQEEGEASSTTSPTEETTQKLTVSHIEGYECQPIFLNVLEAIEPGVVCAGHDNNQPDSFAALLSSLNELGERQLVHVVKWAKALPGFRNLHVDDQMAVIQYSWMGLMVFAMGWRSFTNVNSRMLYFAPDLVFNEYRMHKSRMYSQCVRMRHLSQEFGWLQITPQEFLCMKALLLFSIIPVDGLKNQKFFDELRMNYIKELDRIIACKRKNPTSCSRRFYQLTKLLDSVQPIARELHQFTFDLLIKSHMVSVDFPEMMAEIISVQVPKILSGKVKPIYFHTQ
Description: C2C12 AR/ARE reporter assay. In kind it is cell-based. Particulars: mouse myoblast C2C12 cells, agonist mode, geometric mean of n=7; SD of about 0.08. Here is the method:
As an indicator of agonist activity in muscle tissue, the C2C12 AR/ARE reporter assay is performed. Briefly, mouse myoblast C2C12 cells are co-transfected using Fugene™ reagent. A reporter plasmid containing a GRE/ARE (glucocorticoid response element/androgen response element) and TK promoter upstream of the luciferase reporter cDNA, is transfected with a plasmid constitutively expressing human androgen receptor (AR) using viral CMV promoter. Cells are transfected in T150 cm^2 flasks in DMEM media with 4% charcoal stripped Fetal Bovine Serum (FBS). After a 5 hour incubation, transfected cells are trypsinized, plated in 96 well dishes in DMEM media containing 4% charcoal-stripped FBS, incubated for 2 h and then exposed to various concentrations of test compounds ranging from about 0.01 nM to 10 μM. […] Data is fit to a 4 parameter-fit logistics to determine EC50 values. The % efficacy is determined versus maximum stimulation obtained with 10 nM methyltrienolone.

This note sets out measurements from patent US8183388B2, “Androgen receptor modulator and uses thereof” (Eli Lilly and Company, priority 2009, dated 2012).

Take `CC(C)OC(=O)N[C@H]1Cc2c(n(C[C@H]3OCC[C@@H]3O)c3ccc(C#N)cc23)C1` [compound of Formula (I), [(S)-7-Cyano-4-((2R,3S)-3-hydroxytetrahydrofuran-2-ylmethyl)-1,2,3,4-tetrahydrocyclopenta[b]indol-2-yl]-carbamic acid isopropyl ester]: the EC50 (commonly the concentration at which the effect is half-maximal) was approximately 0.2 nM.
